Our source for the MIC values is DBAASP.

Values after ≈ are worked out from the molar mass of the structure shown.

Common to all, as to experiment: ≥ marks a high value that may be exact or a test limit, other limits are often not marked, values filed in µg/mL are converted to µM
Experiment [1] relates to Bacillus cereus.
In experiment [2] the test system is Escherichia coli.
The test system of experiment [3] is Staphylococcus aureus.
Experiment [4] deals with Clavibacter michiganensis subsp. michiganensis DSM 46294.
For experiment [5], the system named is Pectobacterium carotovorum subsp. carotovorum DSM 30168.
Experiment [6] relates to Pseudomonas corrugata DSM 7228.
Experiment [7] concerns Pseudomonas syringae pv. syringae DSM 10604.
Experiment [8] deals with Pseudomonas syringae pv. tomato DC3000.
In experiment [9] the test system is Staphylococcus aureus 90857.
For experiment [10], the system named is Xanthomonas vesicatoria DSM 50861.
Experiment [11] relates to Bacillus anthracis Sterne 34F2.
Experiment [12] deals with Bacillus subtilis var. niger ATCC 9372.
The subject of experiment [13] is Escherichia coli K91BK.
Experiment [14] deals with Acinetobacter baumannii.
For experiment [15], the system named is Enterococcus faecalis.
Experiment [16] concerns Klebsiella pneumoniae.
Experiment [17] relates to Pseudomonas aeruginosa.
The test system of experiment [18] is Staphylococcus epidermidis.
Experiment [19] concerns Micrococcus luteus ATCC 9341.
Experiment [20] has as its system Escherichia coli ATCC 25922.
Experiment [21] relates to Micrococcus luteus.
In experiment [22] the test system is Pseudomonas aeruginosa ATCC 15692.
In experiment [23] the test system is Saccharomyces cerevisiae.
In experiment [24] the test system is Staphylococcus aureus ATCC 25923.

Regarding `CC(C)C[C@H](NC(=O)[C@H](CCCCN)NC(=O)[C@H](Cc1ccccc1)NC(=O)[C@@H](NC(=O)[C@@H](NC(=O)CNC(=O)[C@H](CC(C)C)NC(=O)[C@@H](N)Cc1ccccc1)C(C)C)C(C)C)C(=O)N[C@@H](C)C(=O)N[C@@H](CO)C(=O)N[C@@H](CCCCN)C(=O)N[C@H](C(=O)N[C@@H](Cc1ccccc1)C(=O)N1CCC[C@H]1C(=O)N[C@@H](C)C(=O)N[C@H](C(=O)N[C@H](C(=O)NCC(=O)N[C@@H](CCCCN)C(=O)N[C@H](C(=O)O)C(C)C)C(C)C)C(C)C)C(C)C` [FLGVVFKLASKVFPAVVGKV], the MIC in experiment [1] came to 30.4 µM (≈ 64 µg/mL); in experiment [2] it was 122 µM (≈ 256 µg/mL); in experiment [3], 15.2 µM (≈ 32 µg/mL).
Consider `CC[C@H](C)[C@H](NC(=O)[C@H](CCCCN)NC(=O)[C@H](CCCCN)NC(=O)[C@H](CC(C)C)NC(=O)[C@H](CCCCN)NC(=O)[C@H](CCCN=C(N)N)NC(=O)[C@@H](N)CC(C)C)C(=O)N[C@@H](CC(C)C)C(=O)N[C@@H](CCCCN)C(=O)N[C@@H](CCCCN)C(=O)N[C@@H](CC(C)C)C(=O)N[C@@H](Cc1ccccc1)C(N)=O` [LRKLKKILKKLF], for which the MIC in experiment [4] came to 0.164 µM (≈ 0.25 µg/mL); in experiment [5], 1.64 µM (≈ 2.5 µg/mL); in experiment [6], 0.164 µM (≈ 0.25 µg/mL); in experiment [7], 0.164 µM (≈ 0.25 µg/mL); in experiment [8], 0.327 µM (≈ 0.5 µg/mL); in experiment [9], 6.25 µM (≈ 9.54 µg/mL). In experiment [10], this compound had a minimum inhibitory concentration (MIC) of 0.0654 µM (≈ 0.0999 µg/mL).
`CC[C@H](C)[C@H](NC(=O)[C@H](CCCCN)NC(=O)[C@H](CO)NC(=O)[C@H](Cc1ccccc1)NC(=O)[C@H](CC(C)C)NC(=O)[C@H](CCCCN)NC(=O)[C@H](CCC(=O)O)NC(=O)[C@H](CC(C)C)NC(=O)[C@H](CCCN=C(N)N)NC(=O)[C@H](CCCCN)NC(=O)[C@H](Cc1ccccc1)NC(C)=O)C(=O)N[C@@H](Cc1c[nH]c2ccccc12)C(=O)N[C@@H](CC(N)=O)C(=O)N[C@@H](Cc1c[nH]c2ccccc12)C(=O)N[C@@H](CCCCN)C(N)=O` [FKRLEKLFSKIWNWK]: the MIC in experiment [11] is 14.9 µM (≈ 30.8 µg/mL); in [12] it was 6.25 µM (≈ 12.9 µg/mL); in experiment [13], not below 100 µM.
As for `CC[C@H](C)[C@H](NC(=O)[C@@H](NC(=O)[C@H](CS)NC(=O)[C@H](Cc1ccc(O)cc1)NC(=O)[C@@H](NC(=O)[C@H](CO)NC(=O)[C@@H]1CCCN1C(=O)[C@@H](NC(=O)[C@@H](NC(=O)[C@H](CCCCN)NC(=O)[C@H](CO)NC(=O)[C@H](C)NC(=O)[C@H](CC(C)C)NC(=O)[C@H](CCCCN)NC(=O)[C@H](Cc1ccccc1)NC(=O)[C@@H](NC(=O)[C@@H](N)C(C)C)C(C)C)C(C)C)C(C)C)C(C)C)[C@@H](C)O)C(=O)N[C@H](C(=O)N[C@@H](CCCCN)C(=O)N[C@@H](CCCCN)C(=O)O)[C@@H](C)O` [VVFKLASKVVPSVYCTITKK], the minimal inhibitory concentration (MIC) in experiment [1] was not below 116 µM; in experiment [2] it was 116 µM (≈ 256 µg/mL).
For `CC[C@H](C)[C@H](NC(=O)[C@H](CCCN=C(N)N)NC(=O)[C@H](CCCN=C(N)N)NC(=O)[C@H](CC(C)C)NC(=O)[C@H](CC(N)=O)NC(=O)[C@H](CCCCN)NC(C)=O)C(=O)N[C@H](C(=O)N[C@@H](CCCN=C(N)N)C(=O)N[C@@H](CCCCN)C(=O)N[C@H](C(=O)N[C@H](C(=O)N[C@@H](Cc1cnc[nH]1)C(=O)N[C@H](C(=O)N[C@H](C(=O)N[C@@H](CCCCN)C(=O)N[C@@H](CCCCN)C(=O)N[C@@H](Cc1ccc(O)cc1)C(=O)NCC(N)=O)[C@@H](C)CC)[C@@H](C)CC)[C@@H](C)CC)[C@@H](C)CC)[C@@H](C)O` [KNLRRITRKIIHIIKKYG], the MIC in experiment [11] was 25 µM (≈ 57.3 µg/mL); in [12], 1.56 µM (≈ 3.58 µg/mL); in experiment [13], not below 100 µM.
`CC[C@H](C)[C@H](NC(=O)[C@@H](NC(=O)[C@H](CCCCN)NC(=O)[C@H](CCCCN)NC(=O)[C@@H](NC(=O)[C@@H](NC(=O)[C@H](CCCCN)NC(=O)[C@H](C)NC(=O)[C@H](CCCCN)NC(=O)[C@H](CCCCN)NC(=O)[C@H](CCCCN)NC(=O)[C@@H](N)CCCN=C(N)N)[C@@H](C)CC)[C@@H](C)CC)[C@@H](C)CC)C(N)=O` [RKKKAKIIKKII]: the minimum inhibitory concentration (MIC) in experiment [4] was 6.82 µM (≈ 9.99 µg/mL); in experiment [5], 6.82 µM (≈ 9.99 µg/mL); in experiment [6], 6.82 µM (≈ 9.99 µg/mL); in experiment [7], 0.682 µM (≈ 0.999 µg/mL); in [8] it was 6.82 µM (≈ 9.99 µg/mL); in experiment [9], not below 62.5 µM. The compound also had an MIC in experiment [10] of 6.82 µM (≈ 9.99 µg/mL).
Regarding `CC[C@H](C)[C@H](NC(=O)CNC(=O)[C@H](CCCN=C(N)N)NC(=O)[C@H](Cc1ccc(O)cc1)NC(=O)[C@H](CC(C)C)NC(=O)[C@H](Cc1cnc[nH]1)NC(=O)CNC(=O)[C@H](Cc1ccccc1)NC(=O)[C@@H](N)Cc1c[nH]c2ccccc12)C(=O)N[C@H](C(=O)N[C@@H](CO)C(=O)N[C@H](C(=O)N[C@H](C(=O)N[C@@H](CCCCN)C(=O)N[C@@H](Cc1cnc[nH]1)C(=O)N[C@H](C(=O)N[C@@H](Cc1cnc[nH]1)C(=O)NCC(=O)N[C@@H](CC(C)C)C(=O)N[C@@H](CC(C)C)C(=O)N[C@@H](CO)C(=O)NCC(=O)O)C(C)C)C(C)C)C(C)C)[C@@H](C)O` [WFGHLYRGITSVVKHVHGLLSG], the MIC in experiment [14] was determined as 5.2 µM (≈ 12.8 µg/mL); in experiment [15] it was 10.3 µM (≈ 25.4 µg/mL); in experiment [2] it was 5.2 µM (≈ 12.8 µg/mL); in experiment [16], 21 µM (≈ 51.7 µg/mL); in experiment [17] it was 10.3 µM (≈ 25.4 µg/mL); in experiment [3], 20.6 µM (≈ 50.8 µg/mL). The MIC in experiment [18] came to 10.3 µM (≈ 25.4 µg/mL).
Take `CC[C@H](C)[C@H](N)C(=O)N[C@@H](CC(C)C)C(=O)N1CCC[C@H]1C(=O)N[C@@H](C)C(=O)N[C@@H](CCCCN)C(=O)N[C@@H](Cc1c[nH]c2ccccc12)C(=O)N1CCC[C@H]1C(=O)N[C@@H](Cc1c[nH]c2ccccc12)C(=O)N[C@@H](Cc1c[nH]c2ccccc12)C(=O)N1CCC[C@H]1C(=O)N[C@@H](Cc1c[nH]c2ccccc12)C(=O)N[C@@H](CCCN=C(N)N)C(=O)N[C@@H](CCCN=C(N)N)C(N)=O` [ILPAKWPWWPWRR]: in [19], the minimal inhibitory concentration (MIC) was found to be 0.4 µM (≈ 0.716 µg/mL).
With `CC[C@H](C)[C@H](NC(=O)[C@H](Cc1ccccc1)NC(=O)CNC(=O)[C@H](CCCCN)NC(=O)[C@H](C)NC(=O)[C@H](Cc1ccccc1)NC(=O)[C@H](CCCCN)NC(=O)[C@H](CCCCN)NC(=O)[C@H](C)NC(=O)[C@H](CO)NC(=O)[C@H](Cc1cnc[nH]1)NC(=O)[C@H](C)NC(=O)[C@@H](NC(=O)[C@H](CCC(=O)O)NC(=O)[C@H](CCCCN)NC(=O)[C@H](CC(C)C)NC(=O)CN)C(C)C)C(=O)N[C@@H](CO)C(=O)NCC(=O)N[C@@H](CC(C)C)C(=O)N[C@H](C(=O)NCC(=O)N[C@@H](CO)C(=O)O)[C@@H](C)O` [GLKEVAHSAKKFAKGFISGLTGS], the minimal inhibitory concentration (MIC) is 64 µM (≈ 149 µg/mL) in experiment [20]; not below 32 µM in [21]; not below 256 µM in [22]; not below 128 µM in experiment [23]; more than 256 µM in [24].
Regarding `CC(=O)N[C@@H](CCCCN)C(=O)N[C@@H](CC(C)C)C(=O)N[C@@H](Cc1c[nH]c2ccccc12)C(=O)N[C@@H](CCCCN)C(=O)N[C@@H](CCCCN)C(=O)N[C@@H](Cc1c[nH]c2ccccc12)C(=O)N[C@@H](CCCCN)C(=O)N[C@@H](CCCCN)C(=O)N[C@@H](Cc1c[nH]c2ccccc12)C(=O)N[C@@H](CC(C)C)C(=O)N[C@@H](CCCCN)C(N)=O` [KLWKKWKKWLK], the MIC in [11] was not below 100 µM; in experiment [12], 6.25 µM (≈ 10.1 µg/mL); in [13] it was not below 100 µM.
With `CC[C@H](C)[C@H](NC(=O)[C@H](C)NC(=O)[C@H](CCCCN)NC(=O)[C@H](C)NC(=O)[C@H](C)NC(=O)[C@H](CCCCN)NC(=O)CNC(=O)[C@H](Cc1ccccc1)NC(=O)[C@H](C)NC(=O)[C@@H](NC(=O)CNC(=O)[C@H](C)NC(=O)[C@H](CCCCN)NC(=O)[C@@H](NC(=O)[C@H](C)NC(=O)[C@H](CCSC)NC(=O)CN)[C@@H](C)O)[C@@H](C)O)C(=O)N[C@H](C(=O)NCC(=O)N[C@@H](C)C(=O)N[C@@H](C)C(=O)N[C@@H](CC(C)C)C(=O)O)[C@@H](C)CC` [GMATKAGTAFGKAAKAIIGAAL], the MIC was 16 µM (≈ 32.3 µg/mL) in experiment [20]; 2 µM (≈ 4.04 µg/mL) in experiment [21]; not below 128 µM in experiment [22]; not below 64 µM in experiment [23]; more than 256 µM in experiment [24].
